Molecular target: T1, TGF-beta receptor type-1 (Homo sapiens, UniProt P36897)
T1 sequence (P36897 whole entry): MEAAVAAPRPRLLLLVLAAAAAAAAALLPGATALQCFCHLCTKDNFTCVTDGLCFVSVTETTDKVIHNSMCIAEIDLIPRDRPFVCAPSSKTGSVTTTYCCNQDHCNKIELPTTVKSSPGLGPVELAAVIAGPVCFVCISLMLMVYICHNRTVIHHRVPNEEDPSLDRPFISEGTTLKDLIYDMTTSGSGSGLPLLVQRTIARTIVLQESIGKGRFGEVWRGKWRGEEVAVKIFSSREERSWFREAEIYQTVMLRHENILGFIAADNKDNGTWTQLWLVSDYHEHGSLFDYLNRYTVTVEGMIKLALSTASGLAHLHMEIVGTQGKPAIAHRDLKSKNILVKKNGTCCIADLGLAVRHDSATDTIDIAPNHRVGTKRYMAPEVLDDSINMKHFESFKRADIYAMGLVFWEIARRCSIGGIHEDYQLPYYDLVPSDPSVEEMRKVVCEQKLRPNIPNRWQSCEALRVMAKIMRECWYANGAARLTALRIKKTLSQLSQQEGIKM
Assay: Inhibition of TGFbetaR1 in TGFbeta-stimulated mink Mv1Lu cells assessed as reduction in SMAD nuclear translocation preincubated for 1 hr followed by TGFbeta-stimulation for 15 mins by array scan based method

Row | IC50 [nM] | SMILES
1 | 420 | Cc1cccc(-c2ncn(CC(F)F)c2-c2ccc3nccn3c2)n1
2 | 350 | N#Cc1cnc2ccc(-c3c(-c4ccc(F)c(Cl)c4)ncn3CCO)nn12 [6-(4-(3-chloro-4-fluorophenyl)-1-(2-hydroxyethyl)-1H-imidazol-5-yl)imidazo[1,2-b]pyridazine-3-carbonitrile]

From BindingDB's records for doi:10.1021/acsmedchemlett.9b00552 (Bristol-Myers Squibb Research & Development, 2020)
